# Results from ChEMBL document CHEMBL1146734, “Estrogen receptor ligands. Part 3: The SAR of dihydrobenzoxathiin SERMs” (Bioorg Med Chem Lett, 2004).
# Legend:
# Estrogen receptor beta = Estrogen receptor beta (Homo sapiens, UniProt Q92731); assay: Binding affinity towards human estrogen receptor beta (ERbeta)
# Estrogen receptor [1] = molecular target: T1, Estrogen receptor (Homo sapiens, UniProt P03372); assay: Binding affinity towards human estrogen receptor alpha
# T1 sequence (P03372 whole entry): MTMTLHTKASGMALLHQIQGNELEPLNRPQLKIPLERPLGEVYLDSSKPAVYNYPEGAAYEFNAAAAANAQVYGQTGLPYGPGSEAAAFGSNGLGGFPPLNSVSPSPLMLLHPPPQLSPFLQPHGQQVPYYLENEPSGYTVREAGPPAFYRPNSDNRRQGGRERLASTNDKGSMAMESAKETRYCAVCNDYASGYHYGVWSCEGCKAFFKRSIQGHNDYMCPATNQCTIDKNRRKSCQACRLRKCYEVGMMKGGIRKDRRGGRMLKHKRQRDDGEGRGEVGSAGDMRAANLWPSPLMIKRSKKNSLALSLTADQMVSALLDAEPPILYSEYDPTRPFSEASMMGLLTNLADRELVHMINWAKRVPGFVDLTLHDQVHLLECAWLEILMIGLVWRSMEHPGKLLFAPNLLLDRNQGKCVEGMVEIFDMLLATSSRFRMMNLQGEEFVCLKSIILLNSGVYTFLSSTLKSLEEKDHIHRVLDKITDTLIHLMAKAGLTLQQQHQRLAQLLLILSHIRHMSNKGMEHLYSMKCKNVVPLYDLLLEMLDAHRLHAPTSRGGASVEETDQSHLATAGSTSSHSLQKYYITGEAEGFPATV
# Estrogen receptor [2] = molecular target: T2, Estrogen receptor (Homo sapiens, UniProt Q92731+P03372); assay: […] inhibition of human ERalpha/ERbeta co-expressed in HEK 293 cells; 137/1375; type: functional; conditions: hek293
# Estrogen receptor [3] = molecular target: T2, Estrogen receptor; assay: […] inhibition of human ERalpha/ERbeta co-expressed in HEK 293 cells; 127/3316; type: functional; conditions: hek293
# Estrogen receptor [4] = molecular target: T2, Estrogen receptor; assay: […] inhibition of human ERalpha/ERbeta co-expressed in HEK 293 cells; 21/840; type: functional; conditions: hek293
# Estrogen receptor [5] = molecular target: T2, Estrogen receptor; assay: In vitro inhibition of human ERalpha/ERbeta expressed in HEK 293 cells; 76/322; conditions: hek293
# Estrogen receptor [6] = molecular target: T2, Estrogen receptor; assay: In vivo inhibition of human ERalpha/ERbeta co-expressed in HEK 293 cells; type: functional; conditions: hek293
# Chain of Estrogen receptor beta (Q92731 whole entry): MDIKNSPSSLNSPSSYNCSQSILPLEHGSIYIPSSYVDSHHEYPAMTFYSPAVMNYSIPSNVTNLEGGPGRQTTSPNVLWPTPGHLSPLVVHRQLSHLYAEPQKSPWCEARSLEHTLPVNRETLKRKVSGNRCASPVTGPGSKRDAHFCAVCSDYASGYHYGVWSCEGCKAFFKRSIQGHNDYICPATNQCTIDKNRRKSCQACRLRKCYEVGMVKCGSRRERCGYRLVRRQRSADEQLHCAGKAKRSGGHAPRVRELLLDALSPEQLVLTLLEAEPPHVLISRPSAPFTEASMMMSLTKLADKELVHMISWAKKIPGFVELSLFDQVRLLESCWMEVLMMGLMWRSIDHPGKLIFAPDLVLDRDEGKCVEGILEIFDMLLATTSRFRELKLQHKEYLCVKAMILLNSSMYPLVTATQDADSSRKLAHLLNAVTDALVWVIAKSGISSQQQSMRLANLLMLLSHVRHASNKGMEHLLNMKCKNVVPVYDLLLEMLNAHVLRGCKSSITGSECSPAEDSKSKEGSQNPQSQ
Compound,IC50 (Estrogen receptor beta) [nM],IC50 (Estrogen receptor [1]) [nM],also measured
Oc1ccc2c(c1)S[C@H](c1cccs1)[C@H](c1ccc(OCCN3CCCCC3)cc1)O2,162,8.8,–
CC(C)(C)[C@H]1Sc2cc(O)ccc2O[C@H]1c1ccc(OCCN2CCCCC2)cc1,43,11,IC50 (Estrogen receptor [2]): 137 nM
Oc1ccc2c(c1)S[C@H](C1CCCCC1)[C@H](c1ccc(OCCN3CCCCC3)cc1)O2,16,2.6,–
Oc1ccc2c(c1)S[C@H](c1ccncc1)[C@H](c1ccc(OCCN3CCCCC3)cc1)O2,8200,490,–
CC(C)[C@H]1Sc2cc(O)ccc2O[C@H]1c1ccc(OCCN2CCCCC2)cc1,105,7,IC50 (Estrogen receptor [3]): 127 nM
Oc1ccc2c(c1)S[C@H](C1CCCCCC1)[C@H](c1ccc(OCCN3CCCCC3)cc1)O2,28,7.5,IC50 (Estrogen receptor [4]): 21 nM
Oc1ccc2c(c1)S[C@H](CC1CCCCC1)[C@H](c1ccc(OCCN3CCCCC3)cc1)O2,40,3.9,–
CC(C)C[C@H]1Sc2cc(O)ccc2O[C@H]1c1ccc(OCCN2CCCCC2)cc1,38,3,IC50 (Estrogen receptor [5]): 76 nM
Oc1ccc2c(c1)S[C@H](c1cccnc1)[C@H](c1ccc(OCCN3CCCCC3)cc1)O2,8250,542,–
Oc1ccc2c(c1)S[C@H](C1CCCC1)[C@H](c1ccc(OCCN3CCCCC3)cc1)O2,31,2.5,–
Oc1ccc(C[C@H]2Sc3cc(O)ccc3O[C@H]2c2ccc(OCCN3CCCCC3)cc2)cc1,308,2.7,IC50 (Estrogen receptor [6]): 14 nM
Oc1ccc2c(c1)S[C@H](Cc1ccccc1)[C@H](c1ccc(OCCN3CCCCC3)cc1)O2,60,7.4,IC50 (Estrogen receptor [6]): 61 nM
Oc1ccc2c(c1)S[C@H](CC1CCCC1)[C@H](c1ccc(OCCN3CCCCC3)cc1)O2,34,3,–
Oc1ccc2c(c1)S[C@H](c1ccco1)[C@H](c1ccc(OCCN3CCCCC3)cc1)O2,361,35,–
